Experimental findings from ChEMBL document CHEMBL1141545, “Synthesis and biological evaluation of 3,5-diaminoindazoles as cyclin-dependent kinase inhibitors” (Bioorg Med Chem Lett, 2008) are described below.

In experiment [1] the target is Cyclin-dependent kinase 1 (Homo sapiens, UniProt P06493). The experiment in a line: Inhibition of CDK1.
Experiment [2] in a line: Selectivity for CDK2 over CDK1.
Experiment [3] concerns the target Cyclin-dependent kinase 4 (Homo sapiens, UniProt P11802). The experiment is described as follows: Inhibition of CDK4.
Experiment [4] concerns the target Cyclin-dependent kinase 2 (Homo sapiens, UniProt P24941). The experiment in a line: Inhibition of CDK2.
Experiment [5] deals with A549. The experiment is described as follows: Antiproliferative activity against human A549 cells after 48 hrs. To be noted: A549, 48 h. In kind it is functional, cell-based.
Experiment [6] concerns HCT-116. The experiment is described as follows: cells. To be noted: Homo sapiens, HCT-116, 48 h.
Description: Antiproliferative activity against human HCT116 cells after 48 hrs
The subject of experiment [7] is SW-620. The experiment is described as follows: Antiproliferative activity against human SW620 cells after 48 hrs. As to conditions: SW-620, 48 h. In kind it is functional, cell-based.
Experiment [8] has as its system EJ. The experiment in a line: Antiproliferative activity against human EJ cells after 48 hrs. Type of experiment: functional, cell-based.

A value given as a limit tells only on which side of the number the result lay.

Cyclin-dependent kinase 4, sequence (P11802 whole entry): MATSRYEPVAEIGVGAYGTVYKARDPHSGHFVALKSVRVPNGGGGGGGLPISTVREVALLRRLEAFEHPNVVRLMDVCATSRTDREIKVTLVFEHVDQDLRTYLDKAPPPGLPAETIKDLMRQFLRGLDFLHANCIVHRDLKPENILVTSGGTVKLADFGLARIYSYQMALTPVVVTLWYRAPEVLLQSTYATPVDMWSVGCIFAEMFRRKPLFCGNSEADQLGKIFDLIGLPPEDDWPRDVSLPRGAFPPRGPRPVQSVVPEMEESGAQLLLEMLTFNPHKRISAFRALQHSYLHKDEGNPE
Cyclin-dependent kinase 1, sequence (P06493 whole entry): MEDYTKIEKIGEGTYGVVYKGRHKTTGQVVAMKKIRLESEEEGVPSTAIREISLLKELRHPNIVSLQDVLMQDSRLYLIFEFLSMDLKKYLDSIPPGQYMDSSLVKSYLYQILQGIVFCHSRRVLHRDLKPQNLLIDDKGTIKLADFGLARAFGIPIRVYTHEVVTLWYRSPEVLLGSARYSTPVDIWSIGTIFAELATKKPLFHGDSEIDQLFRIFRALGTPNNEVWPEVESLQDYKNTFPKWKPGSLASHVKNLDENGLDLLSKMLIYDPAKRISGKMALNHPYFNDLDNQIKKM

By IC50 is commonly meant the concentration that inhibits the measured activity by half. Lower therefore signals greater potency. Turning to `Nc1ccc(CC(=O)Nc2n[nH]c3ccc(N4CCCS4(=O)=O)cc23)cc1`, the IC50 is 60 nM in experiment [1], 2200 nM in experiment [3] and 16 nM in experiment [4]. For the same compound, the Ratio IC50 in experiment [2] was under 10.

On to `O=C(Cc1ccccc1Cl)Nc1n[nH]c2ccc(N3CCCS3(=O)=O)cc12`, for which the results for the IC50 in experiment [1], in experiment [3] and in experiment [4] were 80 nM, 890 nM and 24 nM, respectively. Further, in experiment [2], the Ratio IC50 is under 10.

For `O=C(Cc1ccccc1)Nc1n[nH]c2ccc([N+](=O)[O-])cc12`, half-maximal inhibition in experiment [4] (IC50) was put at 2000 nM. In other words, the single-digit micromolar range.

Regarding `O=C(Cc1ccc2ccccc2c1)Nc1n[nH]c2ccc(N3CCCS3(=O)=O)cc12`, the IC50 in experiment [1] was 40 nM; in experiment [3], 1600 nM; in experiment [5], 90 nM; in experiment [6], 310 nM; in experiment [7], 80 nM; in experiment [4] it was 9 nM. Besides, the half-maximal inhibitory concentration (IC50) in experiment [8] turned out to be 120 nM. Further, the Ratio IC50 in experiment [2] is under 10.

`Cc1ccc(CC(=O)Nc2n[nH]c3ccc(N4CCCS4(=O)=O)cc23)cc1`: the IC50 worked out at 40 nM in experiment [1]; 1800 nM in experiment [3]; 2570 nM in experiment [5]; 1770 nM in experiment [6]; 1560 nM in experiment [7]; 7 nM in experiment [4]. Also, 1670 nM corresponded to half-maximal inhibition in experiment [8] (IC50). For the same compound, in experiment [2], the Ratio IC50 is under 10.

The compound `CCCN(CCC)c1ccc2[nH]nc(NC(=O)Cc3ccccc3)c2c1` returned an IC50 in experiment [4] of 1800 nM.

In experiment [4], `O=C(Cc1ccccc1)Nc1n[nH]c2ccc(N3CCCCC3=O)cc12` displayed an IC50 of 7100 nM.

As for `O=C(Cc1cccc(F)c1)Nc1n[nH]c2ccc(N3CCCS3(=O)=O)cc12`, the IC50 in experiment [1] turned out to be 30 nM; in experiment [3], 710 nM; in experiment [4], 10 nM. Besides, the Ratio IC50 in experiment [2] is under 10.

Compound `CCN(CC)c1ccc2[nH]nc(NC(=O)Cc3ccccc3)c2c1` gave a concentration for half-maximal inhibition (IC50) in experiment [4] of 200 nM. This lies in the sub-micromolar range.

As to `Cc1cccc(CC(=O)Nc2n[nH]c3ccc(N4CCCS4(=O)=O)cc23)c1`, the IC50 in experiment [1] is 50 nM; in experiment [3] it was 4000 nM; in experiment [4], 10 nM. Also, the Ratio IC50 in experiment [2] is under 10.

On to `O=C(Cc1ccc(Br)cc1)Nc1n[nH]c2ccc(N3CCCS3(=O)=O)cc12`, for which the IC50 in experiment [1] amounted to 22 nM; in experiment [3], 2000 nM; in experiment [5], 3870 nM; in experiment [6], 1400 nM; in experiment [7], 2000 nM; in experiment [4], 7 nM. Besides, the IC50 in experiment [8] amounted to 1570 nM. Further, the Ratio IC50 in experiment [2] was under 10.

As to `O=C(Cc1ccc(N2CCCCC2)cc1)Nc1n[nH]c2ccc(N3CCCS3(=O)=O)cc12`, the IC50 in experiment [1] is 150 nM; in experiment [3], 750 nM; in experiment [5] it was 1100 nM; in experiment [6], 1200 nM; in experiment [8], 980 nM.

In experiment [4], `CCNc1ccc2[nH]nc(NC(=O)Cc3ccccc3)c2c1` showed an IC50 of 500 nM.

As to `CCN(CC)c1ccc(CC(=O)Nc2n[nH]c3ccc(N4CCCS4(=O)=O)cc23)cc1`, the IC50 is 60 nM in experiment [1]; over 1000 nM in experiment [3]; 50 nM in experiment [5]; 220 nM in experiment [6]; 40 nM in experiment [4]; 55 nM in experiment [8].

`O=C(Cc1ccccc1)Nc1n[nH]c2ccc(N3CCCS3(=O)=O)cc12`: the IC50 is 3700 nM in experiment [3]; 4600 nM in experiment [6]; 2200 nM in experiment [7]; 36 nM in experiment [4]; 3600 nM in experiment [8].

With `O=C(Cc1cccc(Cl)c1)Nc1n[nH]c2ccc(N3CCCS3(=O)=O)cc12`, the half-inhibitory concentration (IC50) is 34 nM in experiment [1], 1050 nM in experiment [3] and 10 nM in experiment [4]. The Ratio IC50 in experiment [2] is under 10.

For `O=C(Cc1cccc(Br)c1)Nc1n[nH]c2ccc(N3CCCS3(=O)=O)cc12`, the IC50 worked out at 47 nM in experiment [1], 1800 nM in experiment [3] and 7 nM in experiment [4]. Besides, the Ratio IC50 in experiment [2] was under 10.

`O=C(Cc1ccc(F)cc1)Nc1n[nH]c2ccc(N3CCCS3(=O)=O)cc12`: the IC50 in experiment [1] stood at 50 nM; in experiment [3], 3000 nM; in experiment [4], 20 nM. In addition, in experiment [2], the Ratio IC50 was under 10.

Consider `CN(C)c1ccc(CC(=O)Nc2n[nH]c3ccc(N4CCCS4(=O)=O)cc23)cc1`, for which the half-inhibitory concentration (IC50) in experiment [1] is 28 nM; in experiment [3], 210 nM; in experiment [5], 350 nM; in experiment [6] it was 830 nM; in experiment [4] it was 10 nM. Besides, in experiment [2], the Ratio IC50 is under 10.

For `O=C(Cc1cccc2ccccc12)Nc1n[nH]c2ccc(N3CCCS3(=O)=O)cc12`, the IC50 in experiment [1] came out at 67 nM; in experiment [3] it was 3000 nM; in experiment [5] it was 1400 nM; in experiment [6], 2300 nM; in experiment [7] it was 930 nM; in experiment [4], 20 nM. The compound further had an IC50 in experiment [8] of 1300 nM. For the same compound, in experiment [2], the Ratio IC50 was under 10.

As for `O=C(Cc1ccc(Cl)cc1)Nc1n[nH]c2ccc(N3CCCS3(=O)=O)cc12`, the half-maximal inhibitory concentration (IC50) in experiment [1] was 12 nM; in experiment [3], 2000 nM; in experiment [5] it was 1500 nM; in experiment [6], 1230 nM; in experiment [7], 930 nM; in experiment [4], 10 nM. In experiment [8], this compound yielded an IC50 of 930 nM.

Consider `O=C(Cc1ccccc1)Nc1n[nH]c2ccc(N3C(=O)CNC3=O)cc12`, for which the IC50 in experiment [4] is 2000 nM.

With `O=C(Cc1ccccc1)Nc1n[nH]c2ccc(N3CCCC3=O)cc12`, the IC50 in experiment [4] turned out to be 170 nM.

Regarding `CSc1ccc(CC(=O)Nc2n[nH]c3ccc(N4CCCS4(=O)=O)cc23)cc1`, the IC50 in experiment [1] amounted to 40 nM; in experiment [3], 1300 nM; in experiment [5], 2470 nM; in experiment [6], 820 nM; in experiment [7], 150 nM; in experiment [4], 10 nM. This compound also registered an IC50 in experiment [8] of 280 nM.

`CS(=O)(=O)c1ccc(CC(=O)Nc2n[nH]c3ccc(N4CCCS4(=O)=O)cc23)cc1`: the half-maximal inhibitory concentration (IC50) in experiment [1] worked out at 200 nM; in experiment [3] it was 1400 nM; in experiment [6], 48000 nM; in experiment [4], 22 nM; in experiment [8] it was 35000 nM.

For the compound `O=C(Cc1ccc(-c2ccncc2)cc1)Nc1n[nH]c2ccc(N3CCCS3(=O)=O)cc12`, the IC50 in experiment [1] is 60 nM; in experiment [3] it was 1330 nM; in experiment [5], 1400 nM; in experiment [6], 2500 nM; in experiment [4], 30 nM; in experiment [8] it was 1050 nM. Besides, the Ratio IC50 in experiment [2] was under 10.

Consider `CCCCN(CCCC)c1ccc2[nH]nc(NC(=O)Cc3ccccc3)c2c1`, for which the IC50 in experiment [4] was over 100000 nM.

On to `O=C(Cc1ccc(-c2ccccc2)cc1)Nc1n[nH]c2ccc(N3CCCS3(=O)=O)cc12`, for which the IC50 was 42 nM in experiment [1]; 2200 nM in experiment [3]; 55 nM in experiment [5]; 180 nM in experiment [6]; 40 nM in experiment [7]; 14 nM in experiment [4]. This compound yielded a concentration for half-maximal inhibition (IC50) in experiment [8] of 52 nM.

In the case of `O=C(Cc1ccc(O)cc1)Nc1n[nH]c2ccc(N3CCCS3(=O)=O)cc12`, the concentration for half-maximal inhibition (IC50) was 28 nM in experiment [1]; 1750 nM in experiment [3]; 6530 nM in experiment [6]; 3830 nM in experiment [7]; 9 nM in experiment [4]; 5200 nM in experiment [8].
